Measured values reported in US12030895B2, “Method for preparing heterocyclic derivative compound, composition containing same compound, and hydrate of same compound” (JW PHARMACEUTICAL CORPORATION, priority 2017, dated 2024).
Read-outs that look alike come from different tables or passages of the source. Values belong to the molecule of their own block, whether it stands above or below them.

How the values were obtained:
[1] = for Initial purity: before storage; for form in which the salt was obtained: salt forms prepared by the same process
gout patients [2] = assay: Serum uric acid level in gout patients per dose; type: in vivo, human; settings: 14 days; for patients whose serum uric acid level fell below <5.0 mg/dL / percentage of patients whose serum uric acid level fell below <5.0 mg/dL: measured 15th day
Protocol: The compound was orally administered at doses of 0.25 mg (N=12), 0.5 mg (N=12), 1 mg (N=12) and 2 mg (N=12) based on the active ingredient (3,5-dibromo-4-hydroxyphenyl)(2,3-dihydro-4H-pyrido[4,3-b][1,4]oxazin-4-yl)-methanone (Formula I), and placebo (N=12), for 14 days. The efficacy and safety of the compound on the serum uric acid (UA) level was evaluated in comparison with the placebo.
Serum uric acid levels were measured on the 15th day after administration, and the percentages of patients whose serum uric acid level fell below <6.0 mg/dL and below <5.0 mg/dL were determined and shown in FIG. 13. […] From the above results, it could be understood that a dose less than 2 mg is not effective in the treatment of diseases such as hyperuricemia and gout.
In addition, for a total of 68 gout patients, (3,5-dibromo-4-hydroxyphenyl)(2,3-dihydro-4H-pyrido[4,3-b][1,4]oxazin-4-yl)-methanone hydrochloride 1.5 hydrate according to the present invention was administered. The compound was orally administered at doses of 3 mg (N=13), 5 mg (N=14), 7 mg (N=15) and 10 mg (N=15) based on the active ingredient (3,5-dibromo-4-hydroxyphenyl)(2,3-dihydro-4H-pyrido[4,3-b][1,4]oxazin-4-yl)-methanone (Formula I), and placebo (N=11), for 14 days. The efficacy and safety of the compound on the serum uric acid level was evaluated in comparison with the placebo.
Serum uric acid levels were measured on the 15th day after administration, and the percentages of patients whose serum uric acid level fell below <6.0 mg/dL and below <5.0 mg/dL were determined and shown in FIG. 14.

[3] = Physical stability to processing factors (grinding, granulating, tableting); type: physicochemical
Description: In addition, the physical stability to processing factors in the preparation of the above 1.5 hydrate and the non-solvate were compared, and the results are shown in Table 2 below.

[4] = Solubility test in FeSSIF; type: physicochemical; settings: At 240 minutes; 50 mL FeSSIF (pH 5.0), 37° C., paddle 50 rpm; 10 mg compound + 100 mg lactose
Protocol: The solubility test was carried out using 50 mL of FeSSIF (pH 5.0) as a medium and setting the paddle speed at 50 rpm under the operation condition at 37° C.

gout patients [5] = assay: Adverse drug reaction per dose in gout patients; type: in vivo, human; settings: oral, 14 days
Protocol: The compound was orally administered at doses 3 mg (N=14), 5 mg (N=15), 7 mg (N=17) and 10 mg (N=17) based on the active ingredient (3,5-dibromo-4-hydroxyphenyl)(2,3-dihydro-4H-pyrido[4,3-b][1,4]oxazin-4-yl)-methanone (Formula I), and placebo (N=13), for 14 days, and the adverse drug reaction was investigated.

gout patients [6] = assay: Urinary creatinine levels in gout patients; type: in vivo, human; settings: 10 mg, oral, 14 days
Protocol: Furthermore, urinary creatinine levels were also measured in the same patients. The number of cases in which creatinine is increased by more than 0.3 mg/dL or more than 1.5 times compared to baseline is shown in Table 4 below.

[7] = 30% v/w solvent, granulated about 2 min, dried at 50° C.

Structure (SMILES): Cl.c1cc2c(cn1)NCCO2
form in which the salt was obtained [1]: unstable in a semi-solid form

Structure (SMILES): O=C(c1cc(Br)c(O)c(Br)c1)N1CCOc2ccncc21 [compound of Formula I, (3,5-dibromo-4-hydroxyphenyl)(2,3-dihydro-4H-pyrido[4,3-b][1,4]oxazin-4-yl)-methanone]
patients whose serum uric acid level fell below <5.0 mg/dL (gout patients [2]; 0.25 mg oral): no patient
patients whose serum uric acid level fell below <5.0 mg/dL (gout patients [2]; 0.5 mg oral): no patient
patients whose serum uric acid level fell below <5.0 mg/dL (gout patients [2]; 1 mg oral): no patient
percentage of patients whose serum uric acid level fell below <5.0 mg/dL (gout patients [2]; 2 mg oral): about 8%
percentage of patients whose serum uric acid level fell below <5.0 mg/dL (gout patients [2]; 3 mg oral): approximately 23%
percentage of patients whose serum uric acid level fell below <5.0 mg/dL (gout patients [2]; 5 mg oral): ~64%
percentage of patients whose serum uric acid level fell below <5.0 mg/dL (gout patients [2]; 7 mg oral): ~80%
percentage of patients whose serum uric acid level fell below <5.0 mg/dL (gout patients [2]; 10 mg oral): ~73%

Structure (SMILES): O=P(O)(O)O.c1cc2c(cn1)NCCO2
form in which the salt was obtained [1]: gel form

Now from value to molecule, other results behind:

purity, 1 week ([1]; 30° C., 65% RH): 99.05%
purity, 2 weeks ([1]; 30° C., 65% RH): 99.85%
purity, 4 weeks ([1]; 30° C., 65% RH): melted
purity, 1 week ([1]; 40° C., 75% RH): melted
purity, 2 weeks ([1]; 40° C., 75% RH): melted
purity, 4 weeks ([1]; 40° C., 75% RH): melted
Initial purity [1]: 98.88%
Note (stability verdict) ([1]; both conditions, up to 4 weeks): unstable
form in which the salt was obtained [1]: solid form
stability test outcome in words ([1]; stability test for 4 weeks): the solid melted again to a liquid
Structure (SMILES): O=S(=O)(O)O.c1cc2c(cn1)NCCO2 [Sulfate]

purity, 1 week ([1]; 30° C., 65% RH): 97.72%
purity, 2 weeks ([1]; 30° C., 65% RH): 97.96%
purity, 4 weeks ([1]; 30° C., 65% RH): 98.18%
purity, 1 week ([1]; 40° C., 75% RH): 97.74%
purity, 2 weeks ([1]; 40° C., 75% RH): 97.91%
purity, 4 weeks ([1]; 40° C., 75% RH): 98.10%
Initial purity [1]: 99.36%
Note (purity over the stability test) ([1]; both conditions, up to 4 weeks): >97.5%
Structure (SMILES): c1cc2c(cn1)NCCO2 [Free base]

Crystallinity change after Tableting ([3]; 2 tons of pressure for 5 sec, 7 mm punches, powder X-ray diffractometer): Δ5% (94→89%)
Solid form after Granulating with 1:1 of water and ethanol [3, 7]: Unchanged
Solid form after Granulating with water [3, 7]: Unchanged
solid forms in granulating ([3]; granulating): no change
Crystallinity change after Grinding ([3]; ground about 2 min using a mortar, powder X-ray diffractometer): Δ3% (94→91%)
solubility [4]: about 125 μg/mL
Number of cases in which creatinine is increased by more than 0.3 mg/dL or more than 1.5 times compared to baseline (gout patients [6]): 3
Structure (SMILES): Cl.Cl.O.O.O.O=C(c1cc(Br)c(O)c(Br)c1)N1CCOc2ccncc21.O=C(c1cc(Br)c(O)c(Br)c1)N1CCOc2ccncc21 [hydrochloride 1.5 hydrate, (3,5-dibromo-4-hydroxyphenyl)(2,3-dihydro-4H-pyrido[4,3-b][1,4]oxazin-4-yl)-methanone hydrochloride 1.5 hydrate]
patients whose serum uric acid level fell below <5.0 mg/dL (gout patients [2]; 0.25 mg oral): no patient
patients whose serum uric acid level fell below <5.0 mg/dL (gout patients [2]; 0.5 mg oral): no patient
patients whose serum uric acid level fell below <5.0 mg/dL (gout patients [2]; 1 mg oral): no patient
percentage of patients whose serum uric acid level fell below <5.0 mg/dL (gout patients [2]; 2 mg oral): about 8%
percentage of patients whose serum uric acid level fell below <5.0 mg/dL (gout patients [2]; 3 mg oral): approximately 23%
Patients whose serum uric acid level fell below <6.0 mg/dL (gout patients [2]; 3 mg, 5 mg, 7 mg and 10 mg, oral): appeared in all experimental doses
percentage of patients whose serum uric acid level fell below <5.0 mg/dL (gout patients [2]; 5 mg oral): ~64%
percentage of patients whose serum uric acid level fell below <5.0 mg/dL (gout patients [2]; 7 mg oral): ~80%
percentage of patients whose serum uric acid level fell below <5.0 mg/dL (gout patients [2]; 10 mg oral): ~73%
arthralgia (adverse drug reaction) (gout patients [5]; 3 mg (N = 14)): 0
joint swelling (adverse drug reaction) (gout patients [5]; 3 mg (N = 14)): 0
incidence of adverse events such as arthralgia and joint swelling (gout patients [5]; 3 mg, 5 mg, 7 mg and 10 mg): no or very low incidence
arthralgia (adverse drug reaction) (gout patients [5]; 5 mg (N = 15)): 0
joint swelling (adverse drug reaction) (gout patients [5]; 5 mg (N = 15)): 0
arthralgia (adverse drug reaction) (gout patients [5]; 7 mg (N = 17)): 0
joint swelling (adverse drug reaction) (gout patients [5]; 7 mg (N = 17)): 0
arthralgia (adverse drug reaction), cases (gout patients [5]; 10 mg (N = 17)): [3 cases]
arthralgia (adverse drug reaction), persons (gout patients [5]; 10 mg (N = 17)): 2 persons
arthralgia (adverse drug reaction), share of persons (gout patients [5]; 10 mg (N = 17)): 11.76%
joint swelling (adverse drug reaction), cases (gout patients [5]; 10 mg (N = 17)): [1 case]
joint swelling (adverse drug reaction), persons (gout patients [5]; 10 mg (N = 17)): 1 person
joint swelling (adverse drug reaction), share of persons (gout patients [5]; 10 mg (N = 17)): 5.88%
